These results are taken from US20230042612A1, “METHODS OF CONTROLLING OR PREVENTING INFESTATION OF PLANTS BY A PHYTOPATHOGENIC MICROORGANISM OF THE GENUS MACROPHOMINA SPP” (SYNGENTA CROP PROTECTION AG, priority 2019, published 2023).

This assay concerns Macrophomina phaseolina. Briefly: Strawberry pot trial in the greenhouse, soil drench at planting, efficacy against Macrophomina phaseolina. Type of assay: in vivo. Conditions: 250 g AI/ha drench at planting, strawberry 'Sweet Ann'; for Pest severity (IS 0-5; 0 = no damage, 5 = severe damage): 6 replications. The protocol: A strawberry pot trial was carried out in the greenhouse Vero Beach, United States to evaluate the efficacy of different compounds against Macrophomina phaseolina.
The plants were planted in 4 L pots with Vero Beach Mix (50% potting media and 50% pasteurized sand). The plants were bare root strawberry of the variety ‘Sweet Ann’. The strawberry plants were partially planted, then were inoculated with 2 grams of the infested millet. The inoculum was grown on twice sterilized millet for 1-2 weeks. The isolate used was originally isolated from strawberry. After the inoculation the roots were completely covered. At the day of planting each plant was drench applied with 100 mL of compound solution. The application dose was calculated based on a plant spacing of 30.5 cm by 45.7 cm. The plants were grown in a greenhouse that averaged 32° C. in the day and 21° C. at night. Plants were watered daily. The disease severity was evaluated after 44 and 65 days after application using a […] index scale (5=severe damage, 0=no damage).

[1] abbreviates: 65 days after application (second assessment).

As to `O=C(NCCc1ncc(C(F)(F)F)cc1Cl)c1ccccc1C(F)(F)F` [Fluopyram], for the setting “44 days after planting”, the “% efficacy based on disease incidence” value amounted to 44.33% and the “Pest severity (IS 0-5; 0 = no damage, 5 = severe damage)” value is given as 1.67,A. Further, under setting [1], the “% efficacy based on disease incidence” value was 1.60% and the “Pest severity (IS 0-5; 0 = no damage, 5 = severe damage)” value is on record as 4.92,A.
